Measured values as given in patent US6906205B2, “Spiro and dispiro 1,2,4-trioxolane antimalarials” (Medicines for Malaria Venture MMV, priority 2002, dated 2005).
≈ marks a conversion by molar mass, not a printed value.

Tested on: P. falciparum NF54 strain (sensitive to standard antimalarials)
Assay: semiautomated microdilution assay, [3H]-hypoxanthine incorporation, NF54 strain
Format: cell-based, Plasmodium falciparum
Conditions: NF54 strain, 72 h incubation
In short: (§1)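 Logit regression analysis was used to estimate IC50 values. Parasites were intraerythrocytic forms from asynchronous stock cultures, and compounds were tested by semiautomated microdilution.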

In order of rising “IC50 (ng/ml) NF54” value:
1. CC(C)(N)CNC[C@H]1CC[C@]2(CC1)OOC1(O2)C2CC3CC(C2)CC1C3 (stereo partly shown) [OZ287]  0.83 ng/mL (≈ 2.28 nM)
2. COC(=O)c1ncnn1C[C@H]1CC[C@]2(CC1)OOC1(O2)C2CC3CC(C2)CC1C3 (stereo partly shown) [OZ233]  1.9 ng/mL (≈ 4.71 nM)
3. O=C(NO)c1ccc([C@H]2CC[C@]3(CC2)OOC2(O3)C3CC4CC(C3)CC2C4)cc1 (stereo partly shown) [OZ183]  2.1 ng/mL (≈ 5.26 nM)
4. c1ccc(CN2CCC3(CC2)OOC2(O3)C3CC4CC(C3)CC2C4)cc1 (stereo not shown) [OZ220]  4.9 ng/mL (≈ 13.8 nM)
5. O=C(C[C@H]1CC[C@]2(CC1)OO[C@]1(O2)C2CC3CC(C2)CC1C3)Nc1nnn[nH]1 [OZ278]  39 ng/mL (≈ 100 nM)

With O=C(C[C@H]1CC[C@]2(CC1)OOC1(O2)C2CC3CC(C2)CC1C3)Nc1nccs1 (stereo partly shown) [OZ217] the “IC50 (ng/ml) NF54” value was 2.0/2.0 ng/ml.

Same assay, conditions: Plasmodium falciparum, NF54, 72 h, read-out: IC50 (ng/ml) NF54

For OC1CCC2(CC1)OOC1(O2)C2CC3CC(C2)CC1C3 (stereo not shown) [OZ32], the IC50 was 0.51 ng/mL (≈ 1.82 nM).

Tested on: P. falciparum K1 strain (Thailand resistant to chloroquine)
Assay: semiautomated microdilution assay, [3H]-hypoxanthine incorporation, K1 strain
Format: cell-based, Plasmodium falciparum
Conditions: K1 strain, 72 h incubation
In short: as §1

In order of rising “IC50 (ng/ml) K1” value:
1. CC(C)(N)CNC[C@H]1CC[C@]2(CC1)OOC1(O2)C2CC3CC(C2)CC1C3 (stereo partly shown) [OZ287]  0.49 ng/mL (≈ 1.34 nM)
2. O=C(NO)c1ccc([C@H]2CC[C@]3(CC2)OOC2(O3)C3CC4CC(C3)CC2C4)cc1 (stereo partly shown) [OZ183]  0.80 ng/mL (≈ 2 nM)
3. COC(=O)c1ncnn1C[C@H]1CC[C@]2(CC1)OOC1(O2)C2CC3CC(C2)CC1C3 (stereo partly shown) [OZ233]  1.7 ng/mL (≈ 4.21 nM)
4. c1ccc(CN2CCC3(CC2)OOC2(O3)C3CC4CC(C3)CC2C4)cc1 (stereo not shown) [OZ220]  6.9 ng/mL (≈ 19.4 nM)
5. O=C(C[C@H]1CC[C@]2(CC1)OO[C@]1(O2)C2CC3CC(C2)CC1C3)Nc1nnn[nH]1 [OZ278]  23 ng/mL (≈ 59.1 nM)

O=C(C[C@H]1CC[C@]2(CC1)OOC1(O2)C2CC3CC(C2)CC1C3)Nc1nccs1 (stereo partly shown) [OZ217] was tested, and the “IC50 (ng/ml) K1” value was 2.0/2.0 ng/ml.

Same assay, conditions: Plasmodium falciparum, K1, 72 h, read-out: IC50 (ng/ml) K1

OC1CCC2(CC1)OOC1(O2)C2CC3CC(C2)CC1C3 (stereo not shown) [OZ32] was tested, and the IC50 was 0.25 ng/mL (≈ 0.892 nM).

Tested on: ANKA strain of P. berghei
Assay: single dose STI in vivo screen in infected mice
Parameters: species or system Plasmodium berghei
Conditions: percent reduction in parasitemia day 3 post-infection; single 3 mg/kg po in SSV
In short: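 Groups of 3-5 Moro SPF or NMRI mice infected with the ANKA strain of P. berghei received a single dose of trioxolane on day one post-infection. The compound was given in 3% ethanol and 7% Tween 80 or in SSV (0.5% w/v CMC, 0.5% v/v benzyl alcohol, 0.4% v/v Tween 80, 0.9% w/v sodium chloride in water). Antimalarial activity was scored as percent reduction in parasitemia on day three and as survival time versus untreated controls. Survival to day 30 counted as cure.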

With CC(C)(N)CNC[C@H]1CC[C@]2(CC1)OOC1(O2)C2CC3CC(C2)CC1C3 (stereo partly shown) [OZ287] the “Activity (%) 3 mg/kg SSV po” value was 68%.

Same assay, conditions: percent reduction in parasitemia day 3 post-infection; single 10 mg/kg po in 3% ethanol and 7% Tween 80; mice

In order of falling “Activity (%) po” value:
1. OC1CCC2(CC1)OOC1(O2)C2CC3CC(C2)CC1C3 (stereo not shown) [OZ32]  79%
2. COC(=O)c1ncnn1C[C@H]1CC[C@]2(CC1)OOC1(O2)C2CC3CC(C2)CC1C3 (stereo partly shown) [OZ233]  69%
3. O=C(C[C@H]1CC[C@]2(CC1)OOC1(O2)C2CC3CC(C2)CC1C3)Nc1nccs1 (stereo partly shown) [OZ217]  67%
4. O=C(NO)c1ccc([C@H]2CC[C@]3(CC2)OOC2(O3)C3CC4CC(C3)CC2C4)cc1 (stereo partly shown) [OZ183]  65%
5. c1ccc(CN2CCC3(CC2)OOC2(O3)C3CC4CC(C3)CC2C4)cc1 (stereo not shown) [OZ220]  40%

Same assay, conditions: percent reduction in parasitemia day 3 post-infection; single 10 mg/kg po in SSV

With CC(C)(N)CNC[C@H]1CC[C@]2(CC1)OOC1(O2)C2CC3CC(C2)CC1C3 (stereo partly shown) [OZ287] the “Activity (%) 10 mg/kg SSV po” value was 95%.

For O=C(C[C@H]1CC[C@]2(CC1)OO[C@]1(O2)C2CC3CC(C2)CC1C3)Nc1nnn[nH]1 [OZ278], the “Activity (%) 10 mg/kg SSV po” value was 56/ND %.

Same assay, conditions: percent reduction in parasitemia day 3 post-infection; single 10 mg/kg sc in 3% ethanol and 7% Tween 80; mice

In order of falling “Activity (%) sc” value:
1. c1ccc(CN2CCC3(CC2)OOC2(O3)C3CC4CC(C3)CC2C4)cc1 (stereo not shown) [OZ220]  99.95%
2. COC(=O)c1ncnn1C[C@H]1CC[C@]2(CC1)OOC1(O2)C2CC3CC(C2)CC1C3 (stereo partly shown) [OZ233]  99.66%
3. O=C(C[C@H]1CC[C@]2(CC1)OOC1(O2)C2CC3CC(C2)CC1C3)Nc1nccs1 (stereo partly shown) [OZ217]  98%
4. OC1CCC2(CC1)OOC1(O2)C2CC3CC(C2)CC1C3 (stereo not shown) [OZ32]  91%
5. O=C(NO)c1ccc([C@H]2CC[C@]3(CC2)OOC2(O3)C3CC4CC(C3)CC2C4)cc1 (stereo partly shown) [OZ183]  81%

Same assay, conditions: percent reduction in parasitemia day 3 post-infection; single po dose in standard suspending vehicle (SSV); mice

In order of rising “Activity (%) SSVpo” value:
1. c1ccc(CN2CCC3(CC2)OOC2(O3)C3CC4CC(C3)CC2C4)cc1 (stereo not shown) [OZ220]  0%
2. O=C(C[C@H]1CC[C@]2(CC1)OOC1(O2)C2CC3CC(C2)CC1C3)Nc1nccs1 (stereo partly shown) [OZ217]  8%
3. O=C(NO)c1ccc([C@H]2CC[C@]3(CC2)OOC2(O3)C3CC4CC(C3)CC2C4)cc1 (stereo partly shown) [OZ183]  19%
4. COC(=O)c1ncnn1C[C@H]1CC[C@]2(CC1)OOC1(O2)C2CC3CC(C2)CC1C3 (stereo partly shown) [OZ233]  76%
5. OC1CCC2(CC1)OOC1(O2)C2CC3CC(C2)CC1C3 (stereo not shown) [OZ32]  93%

Same assay, conditions: single 10 mg/kg po in 3% ethanol and 7% Tween 80; untreated control 5.6 ± 0.3

In order of falling “Survival (days) po” value:
1. O=C(C[C@H]1CC[C@]2(CC1)OOC1(O2)C2CC3CC(C2)CC1C3)Nc1nccs1 (stereo partly shown) [OZ217]  7.0 days
2. COC(=O)c1ncnn1C[C@H]1CC[C@]2(CC1)OOC1(O2)C2CC3CC(C2)CC1C3 (stereo partly shown) [OZ233]  7.0 days
3. OC1CCC2(CC1)OOC1(O2)C2CC3CC(C2)CC1C3 (stereo not shown) [OZ32]  6.7 days
4. c1ccc(CN2CCC3(CC2)OOC2(O3)C3CC4CC(C3)CC2C4)cc1 (stereo not shown) [OZ220]  6.0 days
5. O=C(NO)c1ccc([C@H]2CC[C@]3(CC2)OOC2(O3)C3CC4CC(C3)CC2C4)cc1 (stereo partly shown) [OZ183]  6.0 days

Same assay, conditions: single 10 mg/kg po in SSV

For CC(C)(N)CNC[C@H]1CC[C@]2(CC1)OOC1(O2)C2CC3CC(C2)CC1C3 (stereo partly shown) [OZ287], the “Survival (days) 10 mg/kg SSV po” value was 8.3 days.

In the case of O=C(C[C@H]1CC[C@]2(CC1)OO[C@]1(O2)C2CC3CC(C2)CC1C3)Nc1nnn[nH]1 [OZ278], the “Survival (days) 10 mg/kg SSV po” value is reported as 7.3/ND days.

Same assay, conditions: single 10 mg/kg sc in 3% ethanol and 7% Tween 80; untreated control 5.6 ± 0.3

In order of falling “Survival (days) sc” value:
1. c1ccc(CN2CCC3(CC2)OOC2(O3)C3CC4CC(C3)CC2C4)cc1 (stereo not shown) [OZ220]  10.0 days
2. OC1CCC2(CC1)OOC1(O2)C2CC3CC(C2)CC1C3 (stereo not shown) [OZ32]  8.7 days
3. O=C(NO)c1ccc([C@H]2CC[C@]3(CC2)OOC2(O3)C3CC4CC(C3)CC2C4)cc1 (stereo partly shown) [OZ183]  8.3 days
4. COC(=O)c1ncnn1C[C@H]1CC[C@]2(CC1)OOC1(O2)C2CC3CC(C2)CC1C3 (stereo partly shown) [OZ233]  8.3 days
5. O=C(C[C@H]1CC[C@]2(CC1)OOC1(O2)C2CC3CC(C2)CC1C3)Nc1nccs1 (stereo partly shown) [OZ217]  8.0 days

Same assay, conditions: single po dose in SSV; untreated control 5.6 ± 0.3

In order of falling “Survival (days) SSVpo” value:
1. COC(=O)c1ncnn1C[C@H]1CC[C@]2(CC1)OOC1(O2)C2CC3CC(C2)CC1C3 (stereo partly shown) [OZ233]  7.7 days
2. OC1CCC2(CC1)OOC1(O2)C2CC3CC(C2)CC1C3 (stereo not shown) [OZ32]  7.0 days
3. O=C(C[C@H]1CC[C@]2(CC1)OOC1(O2)C2CC3CC(C2)CC1C3)Nc1nccs1 (stereo partly shown) [OZ217]  6.0 days
4. O=C(NO)c1ccc([C@H]2CC[C@]3(CC2)OOC2(O3)C3CC4CC(C3)CC2C4)cc1 (stereo partly shown) [OZ183]  6.0 days
5. c1ccc(CN2CCC3(CC2)OOC2(O3)C3CC4CC(C3)CC2C4)cc1 (stereo not shown) [OZ220]  5.3 days
